# From article PMC6508677, “Identification of druggable small molecule antagonists of the Plasmodium falciparum hexose transporter PfHT and assessment of ligand access to the glucose permeation pathway via FLAG-mediated protein engineering” (PLoS ONE, 2019)
# Several values for one entry are separate records, joined by “and”; a condition that tells them apart may be missing. Equal entries are not always repeated.
# Key:
# [1] = target: T1, PfHT (Plasmodium falciparum, UniProt Q7KWJ5); assay: ATB-BMPA photolabel binding to PfHT liposomes; parameters: expressed in transfected cells
# T1 sequence (Q7KWJ5 1-504): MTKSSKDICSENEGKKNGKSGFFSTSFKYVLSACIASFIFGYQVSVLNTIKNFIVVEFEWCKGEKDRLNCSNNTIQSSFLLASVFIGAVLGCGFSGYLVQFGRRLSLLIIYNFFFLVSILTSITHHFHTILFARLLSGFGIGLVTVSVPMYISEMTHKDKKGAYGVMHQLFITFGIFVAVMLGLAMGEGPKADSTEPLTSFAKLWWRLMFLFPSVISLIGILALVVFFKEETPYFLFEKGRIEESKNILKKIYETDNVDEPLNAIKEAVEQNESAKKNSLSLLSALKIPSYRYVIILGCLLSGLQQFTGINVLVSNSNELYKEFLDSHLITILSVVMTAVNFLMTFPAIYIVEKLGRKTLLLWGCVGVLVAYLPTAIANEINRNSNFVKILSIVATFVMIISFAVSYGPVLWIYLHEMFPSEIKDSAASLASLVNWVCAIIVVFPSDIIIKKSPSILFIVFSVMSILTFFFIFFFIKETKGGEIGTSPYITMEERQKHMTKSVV
# Protocol: WU-1 inhibitor was added to PfHT liposomes for 10 min at room temperature. Samples (final volume, 110 μl) were then incubated for 10 min at room temperature with biotinylated ATB-BMPA (50 μM final concentration) and then placed on ice prior to UV irradiation. Reactions were transferred to a 24-well low protein retention culture dish (Costar, Corning, NY) and then irradiated at room temperature 5 cm from a Green Spot UV lamp for 1 min (30 sec of light followed by 30 sec of darkness followed by 30 sec of light). Unbound ATB-BMPA was removed using a 0.5 ml Zeba Spin Column (Thermo Scientific, Rockford, IL). Samples were analyzed by immunoblot analysis using a fluorescently labeled streptavidin (LI-COR Biosciences, Lincoln, NE). The amount of PfHT protein in each sample was quantified by SDS-PAGE stained with Blue BANDIT protein stain using a BSA standard curve. The streptavidin signal was then normalized to the amount of PfHT protein.
# [2] = target: T1, PfHT; assay: [3H]-D-glucose specific uptake into liposomes containing purified PfHT; format: biochemical; parameters: expressed in transfected cells; host or cells: HEK293 (HEK293-FLIP, native hGLUT1 knocked down by shRNA); details: for D-Glc - L-Glc Uptake, Ave / D-Glc - L-Glc Uptake, individual experiments: PfHT liposomes
# [3] = system: GLUT1 Y293I; parameters: method as in PMID 8157690; details: GLUT1 Y293I vs wild type; cited from earlier work
structure (smiles),measurement,setting,value
"Cc1ccc(S(=O)(=O)CCNC(=O)c2c(-c3c(Cl)cccc3Cl)noc2C)cc1 [WU-1, 3-(2,6-dichlorophenyl)-5-methyl-N-[2-(4-methylbenzenesulfonyl)ethyl]-1,2-oxazole-4-carboxamide]",decrease of biotinylated ATB-BMPA photolabel binding to PfHT,"[1]; 10 μM WU-1, PfHT liposomes",~ 60%
same,"ATB-BMPA labeling, Strep signal","[1]; 10µM WU-1, individual samples",15.08 and 15.68 and 15.48
same,"ATB-BMPA labeling, Strep/Protein","[1]; 10µM WU-1, individual samples",1.91 and 1.96 and 1.99
same,"ATB-BMPA labeling, Strep/Protein normalized to 100% Control","[1]; 10µM WU-1, individual samples",40.83 and 41.46
same,"ATB-BMPA labeling, normalized Ave","[1]; 10µM WU-1, mean of 3",40.69
same,remaining activity at 10 µM,"[1]; read-out: ATB-BMPA labeling, Strep/Protein normalized to 100% Control, 10µM WU-1, individual samples",39.8%
same,IC50,"[2]; IC50 for specific D-glucose uptake (D-glucose minus L-glucose) into PfHT liposomes, purified PfHT, zero-trans, mean",5.9 ± 0.8 µM
same,IC50,"[2]; IC50 for specific D-glucose uptake into PfHT liposomes, individual experiments, Expt 1-3",7.34 µM and 4.58 µM and 5.92 µM
same,"D-Glc - L-Glc Uptake, Ave",[2]; 0.001 µM WU-1,21.51 pmol/µg PfHT
same,"D-Glc - L-Glc Uptake, individual experiments",[2]; 0.001 µM WU-1,20.93 pmol/µg PfHT and 22.42 pmol/µg PfHT and 21.19 pmol/µg PfHT
same,"D-Glc - L-Glc Uptake, Ave",[2]; 0.625 µM WU-1,22.79 pmol/µg PfHT
same,"D-Glc - L-Glc Uptake, individual experiments",[2]; 0.625 µM WU-1,21.85 pmol/µg PfHT and 22.43 pmol/µg PfHT and 24.08 pmol/µg PfHT
same,"D-Glc - L-Glc Uptake, Ave",[2]; 1.25 µM WU-1,19.33 pmol/µg PfHT
same,"D-Glc - L-Glc Uptake, individual experiments",[2]; 1.25 µM WU-1,16.67 pmol/µg PfHT and 24.18 pmol/µg PfHT and 17.15 pmol/µg PfHT
same,"D-Glc - L-Glc Uptake, Ave",[2]; 2.5 µM WU-1,18.48 pmol/µg PfHT
same,"D-Glc - L-Glc Uptake, individual experiments",[2]; 2.5 µM WU-1,16.28 pmol/µg PfHT and 15.54 pmol/µg PfHT and 23.61 pmol/µg PfHT
same,"D-Glc - L-Glc Uptake, Ave",[2]; 5 µM WU-1,10 pmol/µg PfHT
same,"D-Glc - L-Glc Uptake, individual experiments",[2]; 5 µM WU-1,13.49 pmol/µg PfHT and 7.15 pmol/µg PfHT and 9.35 pmol/µg PfHT
same,"D-Glc - L-Glc Uptake, Ave",[2]; 10 µM WU-1,7.99 pmol/µg PfHT
same,"D-Glc - L-Glc Uptake, individual experiments",[2]; 10 µM WU-1,7.38 pmol/µg PfHT and 9.19 pmol/µg PfHT and 7.39 pmol/µg PfHT
same,"D-Glc - L-Glc Uptake, Ave",[2]; 20 µM WU-1,5.15 pmol/µg PfHT
same,"D-Glc - L-Glc Uptake, individual experiments",[2]; 20 µM WU-1,6.58 pmol/µg PfHT and 4.82 pmol/µg PfHT and 4.04 pmol/µg PfHT
same,"D-Glc - L-Glc Uptake, Ave",[2]; 40 µM WU-1,2.74 pmol/µg PfHT
same,"D-Glc - L-Glc Uptake, individual experiments",[2]; 40 µM WU-1,3.05 pmol/µg PfHT and 1.92 pmol/µg PfHT and 3.24 pmol/µg PfHT
same,"D-Glc - L-Glc Uptake, Ave",[2]; 80 µM WU-1,-0.29 pmol/µg PfHT
same,"D-Glc - L-Glc Uptake, individual experiments",[2]; 80 µM WU-1,0.605 pmol/µg PfHT and -1.53 pmol/µg PfHT and 0.06 pmol/µg PfHT
same,"D-Glc - L-Glc Uptake, Ave",[2]; 160 µM WU-1,-0.167 pmol/µg PfHT
same,"D-Glc - L-Glc Uptake, individual experiments",[2]; 160 µM WU-1,0.75 pmol/µg PfHT and -0.06 pmol/µg PfHT and -1.19 pmol/µg PfHT
"C=C1[C@@H](C)[C@H]2[C@H](Cc3ccccc3)NC(=O)[C@]23OC(=O)/C=C/[C@H](O)CCC[C@@H](C)C/C=C/[C@H]3[C@@H]1O [CB, cytochalasin B]",increase of Ki by Y293I mutation,[3],> 100 fold
